Among the data in a melting point compilation (Tetko et al.; mined from patent text by program, amines drawn as free bases though some values may be those of a salt) are melting point values, retold here.

One may read the melting point as the temperature of the solid-liquid transition. On to `CCOc1ccc(C2=NN(C3CCCCC3)C(=O)[C@H]3CC=CC[C@@H]23)cc1OCC` (relative stereo), for which the melting point is 147 to 148 °C. `CCCCCCCCCCCCCCS(=O)(=O)N[C@H]1CCCNC(=O)C1` gave a melting point of 100 to 101 °C. With `COC(=O)c1cc(I)cc(OC)c1O` the figure was 104 °C. With `CCOC(=O)c1c(N2CCN(C(=O)c3cccs3)CC2)c2cc(Cl)cnc2n(CC(=O)c2ccccc2)c1=O`, the melting point was found to be 227 °C. With `O=c1c(-c2ccccc2)coc2ccccc12` the figure was 132 to 134 °C; with `Cc1nc2sccn2c(=O)c1Br`, 127 to 129 °C.

With `O=C(O)c1ccc(-c2ccc3nnn(Cc4ccc5ncccc5c4)c3n2)cc1F`, the melting point is 254 to 257 °C. Under `CCOC(=O)c1nc(-c2ccc(Cl)cc2Cl)n(-c2ccc(C(F)(F)F)cc2)c1C` stands 160 to 162 °C. Regarding `O=C1CCC(N2Cc3c(OCc4ccc(CN(CCC(F)(F)F)CCC(F)(F)F)cc4)cccc3C2=O)C(=O)N1` (centres undefined), the melting point lay in the range of 107 to 109 °C. `CC(=O)Nc1c(OC(C)=O)cc(C(=O)O)cc1[N+](=O)[O-]` had a melting point of 196 to 201 °C.

Take `O=C(O)[C@H](Cc1ccc(C(F)(F)F)cc1)[C@@H](O)c1ccc(F)cc1F` (racemic): the melting point lay in the range of 120 to 121 °C.

Turning to `CC(=O)NNc1nc(C(F)(F)F)nc(-c2ccc(F)cc2)c1-c1ccccc1`, the melting point lay in the range of 149 to 153 °C.

In the case of `COc1cc(C=O)cc2c1OCCC2=O`, the melting point came out at 139 °C. With `BrCCCCCCCCCCn1c2ccccc2c2ccccc21` the figure was 38 to 40 °C; with `COc1cccc(CC(=S)SCC(=O)O)c1`, 93 to 95 °C. In the case of `O=C1NC(c2ccccc2)(c2ccccc2)C(=O)N1COCc1ccccc1`, the melting point fell in the range of 151 to 152 °C. For `CCc1cccc(NC(=O)c2ccn3c2CSC3c2cccnc2)n1` (centres undefined), the melting point was determined as 150 °C.

`C[Si](C)(C)N1Cc2ccccc2P1(=O)c1ccccc1` (centres undefined) displayed a melting point of 90 to 94 °C. Molecule `CC(C)S(=O)(=O)C(C#N)=CC=CN(C)C` showed a melting point of 102 to 104 °C. With `CC(C)n1nc(-c2c(OCC(=O)NC3CC3)nc(N)nc2-c2ccccc2)ccc1=O` the figure was 87 to 92 °C; with `CC(=O)C1=C(O)C(=C(C)Nc2ccc(Cl)cc2)C(=O)OC1=O`, 205 to 206 °C.

`CCOC(=O)C(=O)Nc1cc(Cl)ccc1[N+](=O)[O-]` displayed a melting point of 103 to 104 °C.

Molecule `CCC(C)(N=NC(C)(CC)NC(=O)NC1CCCCC1)NC(=O)NC1CCCCC1` (centres undefined) showed a melting point of 110 to 113 °C.

Regarding `OC(CCC(c1ccccc1)c1ccccc1)c1cncn1Cc1ccccc1` (centres undefined), the melting point was 160 to 168 °C. With `CCCSC(=S)N1C(CO)Cc2c([nH]c3ccccc23)C1C` (centres undefined) the figure was 115 to 118 °C.

In turn, `N#CC(c1ccnc(NCCc2c[nH]cn2)n1)c1nc2ccccc2s1` (centres undefined) yielded a melting point of 257 to 258 °C.

Regarding `CC12CCC3c4ccc(OC(=O)Cc5ccccc5)cc4CCC3C1CCC2=O` (centres undefined), the melting point lay within 114 to 116 °C. With `CNN(Cc1ccccc1N)c1ccccc1` the figure was 57 to 59 °C; with `CCOC(=O)/C=C/c1cn(Cc2ccc(OCc3nc(-c4ccccc4)oc3C)cc2)cc1-c1ccccc1`, 120 to 121 °C. With `CSc1cc(CCC(=O)OC(C)(C)C)cc(-c2nc(=O)c3ccccc3s2)n1` the figure was 126 °C; with `CN(c1cccc2cc(-c3ncc(CC(=O)N4CCOCC4)s3)[nH]c12)S(=O)(=O)c1cccs1`, 199 to 200 °C. The molecule `Cc1oc(-c2ccccc2)nc1CCC#N` registered a melting point of 63 to 64 °C. With `C=CCN1C(=O)CN(c2ccc(OCc3ccccc3)cc2)C1=S` the figure was 130 °C; with `C[C@H]1C(=O)OCN1C(=O)OC(C)(C)C`, 64 to 67 °C; with `CCCCOc1ccc(C(=O)Nc2ccc3ccc(Cl)nc3n2)cc1`, 140 °C. With `CNN(NC)C(=O)Nc1cccc2c1C(=O)c1c-2n[nH]c1-c1ccc(OC)s1`, the melting point was 280 °C.

Molecule `CCOC(=O)Nc1nc2ccccc2c2c(CC(C)C)n(C)nc12` registered a melting point of 120 to 121 °C. For `CCc1ncnc(N[C@H]2CS[C@@H](c3ccc(C)cc3)SC2)c1Cl`, the melting point lay in the range of 138 to 139 °C. Under `Cc1noc(=O)c2ccc(N)cc12` stands 291 to 296 °C. With `COc1cccc(CN(C)CC(CCN2CCC(NC(C)=O)(c3ccccc3)CC2)c2ccc(Cl)c(Cl)c2)c1` (centres undefined) the figure was 59 to 61 °C; with `O=C1CCc2ccccc2CN1CO`, 109 to 110 °C; with `CCOC(=O)C=Cc1cc2c(cn1)[nH]c1ccccc12`, 132 to 134 °C. In turn, `Nc1n[nH]c2cc(C(F)(F)F)ccc12` displayed a melting point of 168 to 169 °C. `C=CC(C)(C)C1=C(O)C(=O)c2ccccc2C1=O` yielded a melting point of 60 °C. Under `O=c1[nH]c2ccc(C(F)(F)F)cc2c(-c2cc(Cl)ccc2O)c1Sc1ccc(O)cc1` stands 180 to 190 °C. With `CCCc1c(OCCCOc2ccc3c(c2CCC)OC(C)(CCC(=O)N(C)CC(=O)OCC)CC3=O)ccc(C(C)=O)c1O` (centres undefined) the figure was 101 to 102 °C; with `c1cc2c(ccc3[nH]c4c(c32)CNCC4)s1`, 190 °C; with `CCCCc1nc2cc[nH]c(=O)c2n1Cc1ccc([N+](=O)[O-])cc1`, 193 to 194 °C.

Consider `Cn1nc(-c2c(F)cccc2Cl)nc1-c1ccc(Oc2ccc(C(F)(F)F)cn2)c(Cl)c1`, for which the melting point lay in the range of 116 to 117 °C. `CCOC(=O)C(C)(NC(=O)Cc1ccc(O)c2ncccc12)C(=O)OCC` displayed a melting point of 153 to 154 °C. `CCOc1csc2c(=O)c(C(N)=O)cn(C)c12` registered a melting point of 286 to 287 °C.

The molecule `CCOc1cc(C=O)ccc1OCc1nc(-c2ccco2)oc1C` came in with a melting point of 159 to 160 °C.

Take `Oc1ccc2c(c1-c1ccccc1)CCCC=C2c1ccc(OCCCCCSc2ccc(C(F)(F)F)cc2)cc1`: the melting point worked out at 189 °C.

In turn, `Cn1c(N2CC3CC2CN3C(=O)OC(C)(C)C)nc(-c2ccncn2)cc1=O` (centres undefined) returned a melting point of 198 to 200 °C.

Molecule `COCNC(=O)OC(C(Oc1ccc(-c2ccccc2)cc1)n1cncn1)C(C)(C)C` (centres undefined) registered a melting point of 95 to 98 °C. With `CN(C)n1cn[nH]c1=O`, the melting point was determined as 127 °C.

`CC1(C)CN(C(=O)c2cc3c(C(=O)OC(C)(C)C)ncn3c3ccc(Cl)cc23)CC(C)(C)N1` had a melting point of 241 to 242 °C. Under `CNC(=S)C1(c2cccnc2)CCCCS1=O` (centres undefined) stands 228 °C; under `CCn1cc(C(=O)O)c(=O)c2cc(F)c(OC3CCN(C)CC3)cc21`, 268 to 271 °C. Under `COc1cc2c(c3c1OC(C)(C)C3)C(c1ccccc1)=NC(CO)C2` (centres undefined) stands 156 to 158 °C.

With `Cc1nc(-n2ccc(OCc3ccccc3)cc2=O)sc1C(=O)NCc1cccnc1`, the melting point lay within 208 to 209 °C. With `COc1ccccc1Nc1nc(N)nc2c(OC)cccc12` the figure was 243 to 244 °C. Under `O=C(O)c1ccc(OS(=O)(=O)C(F)(F)F)cc1` stands 178 to 180 °C; under `C#CCCC(=O)Oc1cc(-n2c(OC)nc(C(F)(F)C(F)(F)F)c(F)c2=O)c(F)cc1Cl`, 107 to 109 °C.
